# Key:
# [1] = tested on: Glomerella lacenarium (Colletotrichum lacenarium); assay: Glomerella lacenarium (Colletotrichum lacenarium) liquid culture / cucumber / preventative (anthracnose); format: cell-based; conditions: 20 ppm in the applied formulation, liquid culture in PDB, 24° C., 3 to 4 days after application, read-out: disease control (inhibition of growth, photometric) compared to untreated control
# Protocol: Mycelia fragments or conidia suspensions of a fungus prepared either freshly from liquid cultures of the fungus or from cryogenic storage, are directly mixed into nutrient broth. DMSO solutions of the test compound (max. 10 mg/ml) are diluted with 0.025% Tween20 by a factor of 50 and 10 μL of this solution is pipetted into a microtiter plate (96-well format). The nutrient broth containing the fungal spores/mycelia fragments is then added to give an end concentration of the tested compound. The test plates are incubated in the dark at 24° C. and 96% relative humidity. The inhibition of fungal growth is determined photometrically after 2 to 7 days, depending on the pathosystem, and percent antifungal activity relative to the untreated check is calculated.
# Example 4: Fungicidal Activity Against Glomerella lacenarium (Colletotrichum lacenarium) Liquid Culture/Cucumber/Preventative (Anthracnose)
# Conidia of the fungus from cryogenic storage are directly mixed into nutrient broth (PDB—potato dextrose broth). After placing a (DMSO) solution of test compound into a microtiter plate (96-well format), the nutrient broth containing the fungal spores is added. The test plates are incubated at 24° C. and the inhibition of growth is measured photometrically 3 to 4 days after application.
# The following compounds at 20 ppm in the applied formulation give at least 80% disease control in this test when compared to untreated control under the same conditions, which show extensive disease development.
# [2] = tested on: Puccinia recondita f. Sp. Tritici; assay: Puccinia recondita f. sp. tritici / wheat / leaf disc preventative (brown rust); format: in vivo; conditions: foliar, 200 ppm in the applied formulation, wheat leaf segments, preventative, assessed 7 to 9 days after application, read-out: disease control compared to untreated control leaf disks
# Protocol: Leaf disks or leaf segments of various plant species are cut from plants grown in a greenhouse. The cut leaf disks or segments are placed in multiwell plates (24-well format) onto water agar. The leaf disks are sprayed with a test solution before (preventative) or after (curative) inoculation. Compounds to be tested are prepared as DMSO solutions (max. 10 mg/mL) which are diluted to the appropriate concentration with 0.025% Tween20 just before spraying. The inoculated leaf disks or segments are incubated under defined conditions (temperature, relative humidity, light, etc.) according to the respective test system. A single evaluation of disease level is carried out 3 to 14 days after inoculation, depending on the pathosystem. Percent disease control relative to the untreated check leaf disks or segments is then calculated.
# Example 1: Fungicidal Activity Against Puccinia recondita f. Sp. Tritici/Wheat/Leaf Disc Preventative (Brown Rust)
# Wheat leaf segments cv. Kanzler were placed on agar in multiwell plates (24-well format) and sprayed with the formulated test compound diluted in water. The leaf disks were inoculated with a spore suspension of the fungus 1 day after application. The inoculated leaf segments were incubated at 19° C. and 75% relative humidity (rh) under a light regime of 12 hours light/12 hours darkness in a climate cabinet and the activity of a compound was assessed as percent disease control compared to untreated when an appropriate level of disease damage appears in untreated check leaf segments (7 to 9 days after application).
# The following compounds at 200 ppm in the applied formulation give at least 80% disease control in this test when compared to untreated control leaf disks under the same conditions, which show extensive disease development.
Compound,inhibition at 20 ppm [1] [%],pest or weed control at 200 ppm [2] [%]
"CC(=O)C(=O)NCc1ccc(-c2noc(C(F)(F)F)n2)cc1Cl [Compound 1.60, N-[[2-chloro-4-[5-(trifluoromethyl)-1,2,4-oxadiazol-3-yl]phenyl]methyl]-2-oxo-propanamide]",≥ 80,–
"CON(Cc1ccc(-c2noc(C(F)(F)F)n2)cc1)C(=O)C(=O)NC1CCCC1 [Compound 4.79, N-cyclopentyl-N′-methoxy-N′-[[4-[5-(trifluoromethyl)-1,2,4-oxadiazol-3-yl]phenyl]methyl] oxamide]",≥ 80,≥ 80
COCCN(Cc1ccccc1)C(=O)C(=O)Nc1ccc(-c2noc(C(F)(F)F)n2)cc1 [Compound 4.15],≥ 80,≥ 80
"C=CCNC(=O)C(=O)NCc1ccc(-c2noc(C(F)(F)F)n2)cc1 [Compound 4.57, N-allyl-N′-[[4-[5-(trifluoromethyl)-1,2,4-oxadiazol-3-yl]phenyl]methyl] oxamide]",≥ 80,≥ 80
"CCCON(Cc1ccc(-c2noc(C(F)(F)F)n2)cc1)C(=O)C(C)=O [Compound 1.8, 2-oxo-N-propoxy-N-[[4-[5-(trifluoromethyl)-1,2,4-oxadiazol-3-yl]phenyl]methyl]propanamide]",≥ 80,≥ 80
"CCCC(=O)C(=O)N(Cc1ccc(-c2noc(C(F)(F)F)n2)cc1)CC1CCCO1 (centres unmarked) [Compound 1.13, 2-oxo-N-(tetrahydrofuran-2-ylmethyl)-N-[[4-[5-(trifluoromethyl)-1,2,4-oxadiazol-3-yl]phenyl]methyl]pentanamide]",≥ 80,≥ 80
"CON(Cc1ccc(-c2noc(C(F)(F)F)n2)cc1)C(=O)C(=O)NCc1ccco1 [Compound 4.81, N-(2-furylmethyl)-N′-methoxy-N′-[[4-[5-(trifluoromethyl)-1,2,4-oxadiazol-3-yl]phenyl]methyl] oxamide]",≥ 80,≥ 80
"CC(C)CNC(=O)C(=O)NCc1ccc(-c2noc(C(F)(F)F)n2)cc1 [Compound 4.50, N′-isobutyl-N-[[4-[5-(trifluoromethyl)-1,2,4-oxadiazol-3-yl]phenyl]methyl] oxamide]",–,≥ 80
"CCCC(=O)C(=O)N(Cc1ccc(-c2noc(C(F)(F)F)n2)cc1)OCC=C(Cl)Cl [Compound 1.23, N-(3,3-dichloro-allyloxy)-2-oxo-N-[[4-[5-(trifluoromethyl)-1,2,4-oxadiazol-3-yl]phenyl]methyl]pentanamide]",≥ 80,–
"NC(=O)C(=O)N(Cc1ccc(-c2noc(C(F)(F)F)n2)cc1)OCc1ccc(Cl)cc1 [Compound 4.34, N′-[(4-chlorophenyl)methoxy]-N′-[[4-[5-(trifluoromethyl)-1,2,4-oxadiazol-3-yl]phenyl]methyl] oxamide]",≥ 80,≥ 80
"O=C(NCc1ccccc1)C(=O)NCc1ccc(-c2noc(C(F)(F)F)n2)cc1 [Compound 4.53, N-benzyl-N′-[[4-[5-(trifluoromethyl)-1,2,4-oxadiazol-3-yl]phenyl]methyl] oxamide]",–,≥ 80
"CON(Cc1ccc(-c2noc(C(F)(F)F)n2)cc1)C(=O)C(=O)NCc1ccccc1 [Compound 4.71, N-benzyl-N′-methoxy-N'-[[4-[5-(trifluoromethyl)-1,2,4-oxadiazol-3-yl]phenyl]methyl] oxamide]",≥ 80,≥ 80
"NC(=O)C(=O)NCc1ccc(-c2noc(C(F)(F)F)n2)c(F)c1 [Compound 4.83, N′-[[3-fluoro-4-[5-(trifluoromethyl)-1,2,4-oxadiazol-3-yl]phenyl]methyl] oxamide]",≥ 80,–
"CCCC(=O)C(=O)N(Cc1ccc(-c2noc(C(F)(F)F)n2)cc1)C(C)CC (centres unmarked) [Compound 1.11, 2-oxo-N-sec-butyl-N-[[4-[5-(trifluoromethyl)-1,2,4-oxadiazol-3-yl]phenyl]methyl]pentanamide]",≥ 80,–
"CC(=O)C(=O)NCc1ccc(-c2noc(C(F)(F)F)n2)cn1 [Compound 1.28, 2-oxo-N-[[5-[5-(trifluoromethyl)-1,2,4-oxadiazol-3-yl]-2-pyridyl]methyl]propanamide]",≥ 80,–
"N#CCCN(CCC#N)C(=O)C(=O)Nc1ccc(-c2noc(C(F)(F)F)n2)cc1 [Compound 4.18, N′,N′-bis(2-cyanoethyl)-N-[4-[5-(trifluoromethyl)-1,2,4-oxadiazol-3-yl]phenyl]oxamide]",–,≥ 80
"CCCC(=O)C(=O)N(Cc1ccc(-c2noc(C(F)(F)F)n2)cc1)OCc1ccc(Cl)cc1 [Compound 1.24, N-[(4-chlorophenyl)methoxy]-2-oxo-N-[[4-[5-(trifluoromethyl)-1,2,4-oxadiazol-3-yl]phenyl]methyl]pentanamide]",≥ 80,–
"CC(C)CC(=O)C(=O)NCc1c(F)cc(-c2noc(C(F)(F)F)n2)cc1F [Compound 1.69, N-[[2,6-difluoro-4-[5-(trifluoromethyl)-1,2,4-oxadiazol-3-yl]phenyl]methyl]-4-methyl-2-oxo-pentanamide]",≥ 80,≥ 80
"CN(C(=O)C(=O)Nc1ccc(-c2noc(C(F)(F)F)n2)cc1)C1CCN(C(=O)OC(C)(C)C)C1 (centres unmarked) [Compound 4.22, tert-butyl 3-[methyl-[2-oxo-2-[4-[5-(trifluoromethyl)-1,2,4-oxadiazol-3-yl]anilino]acetyl]amino] pyrrolidine-1-carboxylate]",–,≥ 80
"CN(C)C(=O)C(=O)N(Cc1ccc(-c2noc(C(F)(F)F)n2)cc1)OCc1ccc(Cl)cc1 [Compound 4.33, N′-[(4-chlorophenyl)methoxy]-N,N-dimethyl-N′-[[4-[5-(trifluoromethyl)-1,2,4-oxadiazol-3-yl]phenyl]methyl] oxamide]",≥ 80,–
"CC(C)(C)CNC(=O)C(=O)NCc1ccc(-c2noc(C(F)(F)F)n2)cc1 [Compound 4.45, N′-(2,2-dimethylpropyl)-N-[[4-[5-(trifluoromethyl)-1,2,4-oxadiazol-3-yl]phenyl]methyl] oxamide]",≥ 80,–
"CC(=O)C(=O)N(Cc1ccc(-c2noc(C(F)(F)F)n2)cc1)OCC=C(Cl)Cl [Compound 1.22, N-(3,3-dichloro-allyloxy)-2-oxo-N-[[4-[5-(trifluoromethyl)-1,2,4-oxadiazol-3-yl]phenyl]methyl]propanamide]",≥ 80,≥ 80
"CCCON(Cc1ccc(-c2noc(C(F)(F)F)n2)cc1)C(=O)C(=O)CCC [Compound 1.7, 2-oxo-N-propoxy-N-[[4-[5-(trifluoromethyl)-1,2,4-oxadiazol-3-yl]phenyl]methyl]pentanamide]",≥ 80,–
"NC(=O)C(=O)N(Cc1ccc(-c2noc(C(F)(F)F)n2)cc1)Cc1ccco1 [Compound 4.24, N′-(2-furylmethyl)-N′-[[4-[5-(trifluoromethyl)-1,2,4-oxadiazol-3-yl]phenyl]methyl] oxamide]",≥ 80,≥ 80
"CCNC(=O)C(=O)NCc1ccc(-c2noc(C(F)(F)F)n2)cc1 [Compound 4.49, N-ethyl-N′-[[4-[5-(trifluoromethyl)-1,2,4-oxadiazol-3-yl]phenyl]methyl] oxamide]",≥ 80,≥ 80
"CON(Cc1ccc(-c2noc(C(F)(F)F)n2)cc1)C(=O)C(=O)NC1CCCCC1 [Compound 4.63, N-cyclohexyl-N′-methoxy-N′-[[4-[5-(trifluoromethyl)-1,2,4-oxadiazol-3-yl]phenyl]methyl] oxamide]",≥ 80,≥ 80
"NC(=O)C(=O)NCc1ccc(-c2noc(C(F)(F)F)n2)cc1F [Compound 4.82, N′-[[2-fluoro-4-[5-(trifluoromethyl)-1,2,4-oxadiazol-3-yl]phenyl]methyl] oxarnide]",≥ 80,–
"O=C(Nc1ccc(-c2noc(C(F)(F)F)n2)cc1)C(=O)N(Cc1ccc2c(c1)OCO2)CC1OCCO1 [Compound 4.16, N′-(1,3-benzodioxol-5-ylmethyl)-N′-(1,3-dioxolan-2-ylmethyl)-N-[4-[5-(trifluoromethyl)-1,2,4-oxadiazol-3-yl]phenyl]oxamide]",≥ 80,–
